Source: PubChem BioAssay AID330 (DTP/NCI, 2004)
“And” between values parts separate entries of the source, which are not always exact repeats. Equal entries are not always repeated. Toxic doses and inconclusive results are not listed. The calls were made as follows: active = survival T/C of 150% or more; inactive = T/C below 125% in these data.

Tested on: P388 leukemia ip, CD2F1 mice, survival T/C
Experiment: NCI In Vivo Anticancer Drug Screen. Data for tumor model P388 Leukemia (intraperitoneal) in CD2F1 (CDF1) mice
Details: endpoint: median survival time, higher = longer survival
Summary of the method: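 Mice carrying the transplanted tumor received test compound or vehicle. Survival was recorded in each group, and the value is the treated-group measurement divided by that of the vehicle-treated control group.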

[1] = dose: 50.0 mg/kg/injection, schedule: Q01DX009 (ip), vehicle: saline with Tween-80
[2] = dose: 100.0 mg/kg/injection, schedule: Q01DX009 (ip), vehicle: saline with Tween-80
[3] = dose: 200.0 mg/kg/injection, schedule: Q01DX009 (ip), vehicle: saline with Tween-80
[4] = dose: 50.0 mg/kg/injection, schedule: Q01DX005 (ip), vehicle: Klucel (hydroxypropylcellulose) (HPC)
[5] = dose: 100.0 mg/kg/injection, schedule: Q01DX005 (ip), vehicle: Klucel (hydroxypropylcellulose) (HPC)
[6] = dose: 100.0 mg/kg/injection, schedule: Q01DX001 (ip), vehicle: saline
[7] = dose: 200.0 mg/kg/injection, schedule: Q01DX001 (ip), vehicle: saline
[8] = dose: 400.0 mg/kg/injection, schedule: Q01DX001 (ip), vehicle: saline
[9] = dose: 50.0 mg/kg/injection, schedule: Q01DX009 (ip), vehicle: saline
[10] = dose: 100.0 mg/kg/injection, schedule: Q01DX009 (ip), vehicle: saline
[11] = dose: 200.0 mg/kg/injection, schedule: Q01DX009 (ip), vehicle: saline
[12] = dose: 25.0 mg/kg/injection, schedule: Q01DX005 (ip), vehicle: Klucel (hydroxypropylcellulose) (HPC)

Measured: T/C

CC(C)N1CCSC1=S
inactive: [1] 104 % of control | [2] 90 % of control | [3] 100 % of control

COc1cc2c(cc1OC)[N+]([O-])=C(c1ccccc1)C2=O
inactive: [4] 94 % of control | [5] 93 % of control

O=C1C=CC(O)C2C1CC13SSC4(CC5C(=O)C=CC(O)C5N4C1=O)C(=O)N23 (stereo unspecified)
inactive: dose: 4.0 mg/kg/injection, schedule: Q01DX009 (ip), vehicle: Klucel (hydroxypropylcellulose) (HPC) 107 % of control | dose: 8.0 mg/kg/injection, schedule: Q01DX009 (ip), vehicle: Klucel (hydroxypropylcellulose) (HPC) 102 % of control

CCn1c(Cl)c(/C=N\Nc2ccc([N+](=O)[O-])cc2)c2ccccc21
inactive: [6] 94 % of control | [7] 95 % of control | [8] 95 % of control

Clc1nc(C(Cl)Cl)nc2ccccc12
inactive: dose: 30.0 mg/kg/injection, schedule: Q01DX005 (ip), vehicle: saline with Tween-80 106 % of control | dose: 60.0 mg/kg/injection, schedule: Q01DX005 (ip), vehicle: saline with Tween-80 110 % of control and 111 % of control | dose: 120.0 mg/kg/injection, schedule: Q01DX005 (ip), vehicle: saline with Tween-80 111 % of control and 113 % of control

CC(SC(C)(C)C)C(=O)SC(C)(C)C (stereo unspecified)
inactive: dose: 100.0 mg/kg/injection, schedule: Q04DX003 (ip), vehicle: Klucel (hydroxypropylcellulose) (HPC) 102 % of control | dose: 200.0 mg/kg/injection, schedule: Q04DX003 (ip), vehicle: Klucel (hydroxypropylcellulose) (HPC) 103 % of control | dose: 400.0 mg/kg/injection, schedule: Q04DX003 (ip), vehicle: Klucel (hydroxypropylcellulose) (HPC) 105 % of control

CC1=C(O)COc2cc(C)ccc21
inactive: [6] 102 % of control | [7] 100 % of control | [8] 100 % of control

CN(C)c1n[nH]c(N)n1
inactive: dose: 12.5 mg/kg/injection, schedule: Q01DX009 (ip), vehicle: saline 101 % of control | dose: 25.0 mg/kg/injection, schedule: Q01DX009 (ip), vehicle: saline 103 % of control | [9] 108 % of control and 95 % of control and 97 % of control | [10] 103 % of control and 104 % of control and 108 % of control | [11] 105 % of control and 97 % of control | dose: 400.0 mg/kg/injection, schedule: Q01DX009 (ip), vehicle: saline 105 % of control and 111 % of control and 113 % of control

Cc1cccc(C(O)(c2cccc(C)c2)C2(O)CCN(C)CC2)c1
inactive: [12] 98 % of control | [4] 98 % of control | [5] 102 % of control

CCSSC(=Nc1ccccc1)OCC(C)C
inactive: dose: 50.0 mg/kg/injection, schedule: Q01DX009 (ip), vehicle: saline + Tween-80 + alcohol 107 % of control | dose: 100.0 mg/kg/injection, schedule: Q01DX009 (ip), vehicle: saline + Tween-80 + alcohol 106 % of control | dose: 200.0 mg/kg/injection, schedule: Q01DX009 (ip), vehicle: saline + Tween-80 + alcohol 123 % of control

OC1CN(CCCCCCN2CC(O)ON2)NO1 (stereo unspecified)
inactive: [9] 93 % of control | [10] 93 % of control | [11] 97 % of control

N#Cc1ccccc1S(=O)(=O)O
inactive: dose: 100.0 mg/kg/injection, schedule: Q01DX001 (ip), vehicle: saline with Tween-80 96 % of control | dose: 200.0 mg/kg/injection, schedule: Q01DX001 (ip), vehicle: saline with Tween-80 90 % of control | dose: 400.0 mg/kg/injection, schedule: Q01DX001 (ip), vehicle: saline with Tween-80 102 % of control

O=S(=O)(OI(O)c1ccccc1)c1ccc(Cl)cc1
inactive: dose: 12.5 mg/kg/injection, schedule: Q01DX009 (ip), vehicle: water 101 % of control | dose: 25.0 mg/kg/injection, schedule: Q01DX009 (ip), vehicle: water 105 % of control | dose: 50.0 mg/kg/injection, schedule: Q01DX009 (ip), vehicle: water 109 % of control and 114 % of control

Nc1ccc(Cl)cn1
inactive: [1] 90 % of control | [2] 99 % of control | [3] 99 % of control

CCCCCCCCCCNCCSSc1ccccc1
inactive: dose: 6.25 mg/kg/injection, schedule: Q01DX005 (ip), vehicle: Klucel (hydroxypropylcellulose) (HPC) 95 % of control | dose: 12.5 mg/kg/injection, schedule: Q01DX005 (ip), vehicle: Klucel (hydroxypropylcellulose) (HPC) 100 % of control | [12] 102 % of control
